Source: patent publication US20100069498A1 (ESSENTYS AB, priority 2003, published 2010)
“And” between values parts separate entries of the source, which are not always exact repeats. Identical values can stand only once.

Tests used:
[1] = Mean luminal disappearance of a duodenal AKG bolus; assay type: in vivo, pigs; settings: duodenal bolus 1040 μmol/kg
Description: After 1 h, pigs were sacrificed.
The small intestine was carefully clamped at the proximal duodenum and distal ileum, removed and flushed with 2×50 mL of saline to wash the intestine.

[2] = Excerpt: Female piglets (n=9) were purchased from the Texas Department of Criminal Justice, Huntsville, Tex.
Pigs (14 d of age) arrived at the Children's Nutrition Research Center and for a 7-day adjustment period were fed a liquid milk replacer diet (Litter Life, Merrick, Middleton, Wis.) at a rate of 50 g/(kg·d).
Briefly, under isoflurane anesthesia and aseptic conditions, the piglets were implanted with a polyethylene catheter (o.d., 1.27 mm, Becton Dickinson, Sparks, Md.) in the common portal vein, and silastic catheters (o.d., 1.78 mm) in an external jugular vein and a carotid artery.
An ultrasonic flow probe (8 to 10 mm i.d., Transonic, Ithaca, N.Y.) was placed around the portal vein.
A silicone catheter (o.d., 2.17 mm, Baxter Healthcare, McGaw Park, Ill.) was implanted into the lumen of the duodenum. The catheters were filled with sterile saline containing heparin (2.5×10^4 U/L), and exteriorized on either the left flank (portal and duodenal catheters, flow probe leads) or between the scapulae (jugular and carotid catheters).
For plasma amino acid analysis, a 0.2 mL aliquot of plasma was mixed with an equal volume of an aqueous solution of methionine sulfone (4 mmol/L) and centrifuged at 10,000×g for 120 min through a 10-kDa cutoff filter.
A 50 μL aliquot of the filtrate was dried and the amino acids were analyzed by reverse-phase HPLC of their phenylisothiocyanate derivatives (Pico Tag, Waters, Woburn, Mass.).
Plasma ammonia was determined using a spectrophotometric assay kit (171-C, Sigma-Aldrich, St. Louis, Mo.).
Plasma glucose was determined using a spectrophotometric assay kit (315-100; Sigma-Aldrich, St. Louis, Mo.).
Net portal balance of metabolites [μmol/(kg·h)] was calculated as follows:
(Conc.PORT−Conc.ART)×PBF (1)
when Conc. is the concentration in the blood (μmol/L), PORT and ART refer to portal and arterial blood and PBF is portal blood flow [L/(kg·h)].
Piglets were deprived of food for 15 h before initiation of the experiment.
On the day of the experiment, at time −1 h, a primed (7.75 mL/kg; 25% wt/wt aqueous solution; oral), continuous duodenal infusion of milk replacer [Litter Life, Merrick, Middleton, Wis.; 7.75 mL/(kg·h)] prepared as a 25% (wt/wt) aqueous solution which provided ˜920 kJ and 12.5 g protein/(kg·d).

Remark: listed apart in the source
[3] = AKG infusion 930 μmol/(kg·h), P<0.01
[4] = AKG treatment, P<0.05, data not shown
[5] = piglets, duodenal infusion 930 μmol/(kg·h) AKG (3.75% of diet dry matter), ± SEM
[6] = pigs, duodenal infusion 930 μmol/(kg·h) AKG, n = 5
[7] = pigs, duodenal infusion 930 μmol/(kg·h) AKG, n = 5, LSMean ± SEM

Q: What does the source list for `O=C(O)CCC(=O)C(=O)O` [AKG, alpha-ketoglutaric acid]?
A: Share of the AKG bolus disappeared from the lumen of the duodenum ([1]; 1 h): approximately 64%; Luminal disappearance as share of the 1040 μmol/kg of infused AKG ([1]; pigs, one hour): 63.8; Effect on net portal appearance of glutamate ([2]; AKG infusion): not affected; Effect on net portal appearance of glutamine ([2]; AKG infusion): not affected; Effect on net portal balance of AKG vs control ([2]; AKG infusion 930 μmol/(kg·h)): increased; Effect on arterial AKG concentration vs control [2, 3]: increased; Effect on portal AKG concentration vs control [2, 3]: increased; Increase in proline net portal balance ([2]; AKG treated pigs vs control): 138.1 µmol/kg/h; Effect on ammonia net portal balance vs control ([2]; AKG treatment, duodenal infusion): not affected; Effect on net portal balance of glucose vs control ([2]; AKG treatment, duodenal infusion, P<0.05): decreased; Effect on portal mass balance of leucine vs control ([2]; AKG treatment, P<0.05): increased; Effect on portal mass balance of lysine vs control ([2]; AKG treatment, P<0.05): increased; Effect on portal mass balance of proline vs control ([2]; AKG treatment, P<0.05): increased; Effect on arterial concentration of proline vs control [2, 4]: increased; Effect on portal concentration of proline vs control [2, 4]: increased; Effect on portal mass balance of isoleucine vs control ([2]; AKG treatment, P<0.10): tended (P<0.10) to increase; Effect on portal leucine concentration vs control ([2]; AKG treatment, data not shown): tended (P<0.01) to be increased; AKG unaccounted for in the portal balance ([2]; duodenal infusion 930 μmol/(kg·h) AKG): over 800 μmol/(kg·h); AKG net portal balance, % of infused ([2]; piglets, duodenal infusion 930 μmol/(kg·h) AKG): 10.23 % of infused and 10 % of infused and 10.23 ± 0.57 % of infused; AKG net portal balance [2, 5]: 95 µmol/kg/h and 95.2 ± 12 µmol/kg/h; Ammonia net portal balance [2, 5]: 561.1 ± 53 µmol/kg/h; Arterial AKG [2, 5]: 27.4 ± 3.6 µmol/L; Glucose net portal balance [2, 5]: 203.9 ± 69 mg/(kg · h); Portal AKG [2, 5]: 64.6 ± 5.9 µmol/L; Net portal balance of Alanine, % of Intake [2, 6]: 189.0 % of Intake; Net portal balance of Arginine, % of Intake [2, 6]: 98.3 % of Intake; Net portal balance of Aspartate, % of Intake [2, 6]: 9.6 % of Intake; Net portal balance of Glutamate, % of Intake [2, 6]: 18.6 % of Intake; Net portal balance of Glycine, % of Intake [2, 6]: 116.0 % of Intake; Net portal balance of Histidine, % of Intake [2, 6]: 71.4 % of Intake; Net portal balance of Isoleucine, % of Intake [2, 6]: 140.0 % of Intake; Net portal balance of Leucine, % of Intake [2, 6]: 113.4 % of Intake; Net portal balance of Lysine, % of Intake [2, 6]: 98.8 % of Intake; Net portal balance of Phenylalanine, % of Intake [2, 6]: 98.7 % of Intake; Net portal balance of Proline, % of Intake [2, 6]: 114.5 % of Intake; Net portal balance of Serine, % of Intake [2, 6]: 108.3 % of Intake; Net portal balance of Threonine, % of Intake [2, 6]: 75.7 % of Intake; Net portal balance of Tyrosine, % of Intake [2, 6]: 135.9 % of Intake; Net portal balance of Valine, % of Intake [2, 6]: 108.9 % of Intake; Net portal balance of Alanine [2, 7]: 557.8 ± 48 µmol/kg/h; Net portal balance of Arginine [2, 7]: 109.0 ± 19 µmol/kg/h; Net portal balance of Asparagine [2, 7]: 185.6 ± 18 µmol/kg/h; Net portal balance of Aspartate [2, 7]: 29.7 ± 6.0 µmol/kg/h; Net portal balance of Glutamate [2, 7]: 80.1 ± 17 µmol/kg/h; Net portal balance of Glutamine [2, 7]: 25.5 ± 45 µmol/kg/h; Net portal balance of Glycine [2, 7]: 177.2 ± 20 µmol/kg/h; Net portal balance of Histidine [2, 7]: 45.9 ± 3.8 µmol/kg/h; Net portal balance of Phenylalanine [2, 7]: 95.2 ± 11 µmol/kg/h; Net portal balance of Serine [2, 7]: 244.7 ± 64 µmol/kg/h; Net portal balance of Threonine [2, 7]: 210.9 ± 18 µmol/kg/h; Net portal balance of Tryptophan [2, 7]: 47.2 ± 4.3 µmol/kg/h; Net portal balance of Tyrosine [2, 7]: 115.8 ± 17 µmol/kg/h; Net portal balance of Valine [2, 7]: 279.3 ± 32 µmol/kg/h; Effect on production of CO2 in the whole body (AKG infusion): did not increase; Effect on NOLD (non-oxidative leucine disposal) vs control (AKG treatment, FIG. 1): not affected; Effect on Ra (leucine appearance rate) vs control (AKG treatment, FIG. 1): not affected; Effect on whole-body leucine oxidation vs control (AKG treatment, FIG. 1): not affected
